Experiments:
[1] = system: OVX rats; test: Prevention of bone loss in OVX rats (female bone mineral density, DEXA); format: in vivo; conditions: Rattus norvegicus, 672 h, oral, read-out: oral ED50, prevents bone loss in OVX rats
Description: Bone mineral density, a measure of bone mineral content, accounts for greater than 80% of a bone's strength. Loss of bone mineral density with age and/or disease reduces a bone's strength and renders it more prone to fracture. Bone mineral content is accurately measured in people and animals by dual x-ray absorptiometry (DEXA) such that changes as little as 1% can be quantified. We have utilized DEXA to evaluate changes in bone mineral density due to estrogen deficiency following ovariectomy (surgical removal of ovaries) and treatment with vehicle, estradiol (E2), keoxifen (raloxifen), or other estrogen agonists. The purpose of these studies is to evaluate the ability of the compounds of this invention to prevent estrogen deficiency bone loss as measured by DEXA. Female (S-D) rats 4-6 months of age undergo bilateral ovariectomy or sham surgery and allowed to recover from anesthesia. […] (Hologic, Inc. Waltham, MA) and bone mineral density is determined in the distal portion of the femur at a site from 1cm to 2cm from the distal end of the femur using the high resolution software supplied by Hologic. Bone mineral density is determined by dividing the bone mineral content by the bone area of the distal femur. […] Mean bone mineral density is obtained for each animal and statistical differences (p<0.05) from the vehicle-treated ovariectomy and sham-operated group were determined by t test.

[2] = system: adult ORX rats; test: Male osteoporosis model: prostate weight and histology; format: in vivo, Sprague-Dawley male rats; conditions: 10 and 100 µg/kg/d p.o. for 60 days; compared to ORX controls
Procedure: (§1) Fifty Sprague-Dawley male rats were sham-operated (n=10) or ORX (n=40) at 10 months of age. Ten rats were autopsied on day 0 as basal controls. ORX rats were treated (daily p.o.) with either vehicle (10% ethanol in water) or (-)Cis-6-phenyl-5-[4-(2-pyrrolidin-1-yl-ethoxy)phenyl]-5,6,7,8-tetrahydronaphthalen-2-ol at 1, 10, or 100 µg/kg/day for 60 days. There were 10 rats per each subgroup. all rats were given subcutaneous injections with 10 mg/kg of calcein (Sigma Chemical Co., St. Louis, MO) on 13 and 3 days before autopsy. • 1) Total serum cholesterol: Total serum cholesterol was determined using a high performance cholesterol colormetic assay (Boehringer Mannheim Biochemicals, Indianapolis, IN). • 2) Prostate weight: The prostate weight was determined immediately at autopsy. • 3) Femoral Bone Mineral Measurements: The right femur from each rat was removed at autopsy and scanned using dual energy x-ray absorptiometry (DEXA, QDR 1000/W, Hologic Inc., Waltham, MA) equipped with "Regional High Resolution Scan" software (Hologic Inc., Waltham, MA). The scan field size is 5.08 x 1.902 cm, resolution was 0.0254 x 0.0127 cm and scan speed is 7.25 mim/second. […]

[3] = system: adult ORX rats; test: Male osteoporosis model: compression test of fifth lumbar vertebral body (LV5); format: in vivo, Sprague-Dawley male rats; conditions: for Maximal Load of LV5: ORX rats, daily p.o. 60 days, p < 0.05 vs. ORX
Procedure: as §1, with “ORX rats were treated (daily p.o.) with either vehicle (10% ethanol in water) or (-)Cis-6-phenyl-5-[4-(2-pyrrolidin-1-yl-ethoxy)phenyl]-5,6,7,8-tetrahydronaphthalen-2-ol at 1, 10, or 100 µg/kg/day for 60 days.” left out, “mim/second. The femoral scan images were analyzed and bone area, bone mineral content (BMC), and bone mineral density (BMD) of whole femora (WF), distal femoral metaphyses (DFM), femoral shaft (FS) were determined according to the method described in H. Z. Ke et al., Droloxifene, a New Estrogen Antagonist/Agonist, Prevents Bone Loss in Ovariectomized Rats. ENDOCRINOLOGY 136;2435-2441, 1995. • 4) Third Lumbar Vertebral Body (LV3) Histomorphometry: The LV3 was removed at autopsy, dissected free of muscle, fixed in 70% ethanol, dehydrated in graded concentrations of ethanol, defatted in acetone, then embedded in methyl methacrylate (Eastman Organic Chemicals, Rochester, NY).” for “mim/second.”
• 1. […] A compression test was used to determine the mechanical properties of LV5, as described by Mosekilde et al. (Mosekilde, L., Danielsen, C. C., Gasser, J. The effect on vertebral bone mass and strength of long term treatment with antiresorptive agents, human PTH (1-38), and combination therapy, assessed in aged ovariectomized rats. Endocrinol 1994; 134:2126-2134). […] The maximal load and stiffness were calculated from the load-displacement curve.

[4] = system: adult ORX rats; test: Male osteoporosis model: total serum cholesterol; format: in vivo, Sprague-Dawley male rats; conditions: for decrease of total serum cholesterol: ORX rats
Procedure: as §1, with “mim/second. The femoral scan images were analyzed and bone area, bone mineral content (BMC), and bone mineral density (BMD) of whole femora (WF), distal femoral metaphyses (DFM), femoral shaft (FS) were determined according to the method described in H. Z. Ke et al., Droloxifene, a New Estrogen Antagonist/Agonist, Prevents Bone Loss in Ovariectomized Rats. ENDOCRINOLOGY 136;2435-2441, 1995. • 4) Third Lumbar Vertebral Body (LV3) Histomorphometry: The LV3 was removed at autopsy, dissected free of muscle, fixed in 70% ethanol, dehydrated in graded concentrations of ethanol, defatted in acetone, then embedded in methyl methacrylate (Eastman Organic Chemicals, Rochester, NY). Longitudinal sections of LV3 at 4 and 10 µm thickness were cut using Reichert-Jung Polycut S microtome. One 4 µm and one 10 µm sections from each rat will be used for cancellous bone histomorphometry.” for “mim/second.”

[5] = Male osteoporosis model: body weight; format: in vivo, Sprague-Dawley male rats; conditions: 1, 10, 100 µg/kg/day p.o. for 60 days; compared to both sham and ORX controls
Procedure: as §1

[6] = system: adult ORX rats; test: Male osteoporosis model: third lumbar vertebral body (LV3) histomorphometry; format: in vivo, Sprague-Dawley male rats; conditions: for Activation Frequency: ORX rats, daily p.o. 60 days
Procedure: Fifty Sprague-Dawley male rats were sham-operated (n=10) or ORX (n=40) at 10 months of age. Ten rats were autopsied on day 0 as basal controls. […] There were 10 rats per each subgroup. all rats were given subcutaneous injections with 10 mg/kg of calcein (Sigma Chemical Co., St. Louis, MO) on 13 and 3 days before autopsy. • 1) Total serum cholesterol: Total serum cholesterol was determined using a high performance cholesterol colormetic assay (Boehringer Mannheim Biochemicals, Indianapolis, IN). • 2) Prostate weight: The prostate weight was determined immediately at autopsy. • 3) Femoral Bone Mineral Measurements: The right femur from each rat was removed at autopsy and scanned using dual energy x-ray absorptiometry (DEXA, QDR 1000/W, Hologic Inc., Waltham, MA) equipped with "Regional High Resolution Scan" software (Hologic Inc., Waltham, MA). The scan field size is 5.08 x 1.902 cm, resolution was 0.0254 x 0.0127 cm and scan speed is 7.25 mim/second. The femoral scan images were analyzed and bone area, bone mineral content (BMC), and bone mineral density (BMD) of whole femora (WF), distal femoral metaphyses (DFM), femoral shaft (FS) were determined according to the method described in H. Z. Ke et al., Droloxifene, a New Estrogen Antagonist/Agonist, Prevents Bone Loss in Ovariectomized Rats. ENDOCRINOLOGY 136;2435-2441, 1995. • 4) Third Lumbar Vertebral Body (LV3) Histomorphometry: The LV3 was removed at autopsy, dissected free of muscle, fixed in 70% ethanol, dehydrated in graded concentrations of ethanol, defatted in acetone, then embedded in methyl methacrylate (Eastman Organic Chemicals, Rochester, NY). Longitudinal sections of LV3 at 4 and 10 µm thickness were cut using Reichert-Jung Polycut S microtome. One 4 µm and one 10 µm sections from each rat will be used for cancellous bone histomorphometry. The 4 µm sections were stained with modified Masson's Trichrome stain while the 10 µm sections remained unstained.
A Bioquant OS/2 histomorphometry system (R&M Biometrics, Inc., Nashville, TN) was used for the static and dynamic histomorphometric measurements of the secondary spongiosa of the proximal tibial metaphyses between 1.2 and 3.6 mm distal to the growth plate-epiphyseal junction. The first 1.2 mm of the tibial metaphyseal region need to be omitted in order to restrict measurements to the secondary spongiosa. The 4 µm sections will be used to determine indices related to bone volume, bone structure, and bone resorption, while the 10 µm sections will be used to determine indices related to bone formation and bone turnover.
• 1. Total metaphyseal area (TV, mm^2): metaphyseal area between 1.2 and 3.6 mm distal to the growth plate-epiphyseal junction. • 2. Trabecular bone area (BV, mm^2): total area of trabeculae within TV. • 3. Trabecular bone perimeter (BS, mm): the length of total perimeter of trabeculae. • 4. Trabecular bone volume (BV/TV,%): BV / TV x 100. • 5. Trabecular bone number (TBN,#/mm): 1.199 / 2 x BS / TV. • 6. Trabecular bone thickness (TBT, µm): (2000 / 1.199) x (BV / BS). • 7. Trabecular bone separation (TBS, µm): (2000 x 1.199) x (TV - BV).
• 1. Osteoclast number (OCN, #): total number of osteoclast within total metaphyseal area. • 2. […] (OCP, mm): length of trabecular perimeter covered by osteoclast. • 3. Osteoclast number/mm (OCN/mm, #/mm): OCN / BS. • 4. Percent osteoclast perimeter (%OCP,%): OCP / BS x 100.
• 1. Single-calcein labeled perimeter (SLS, mm): total length of trabecular perimeter labeled with one calcein label. • 2. Double-calcein labeled perimeter (DLS, mm): total length of trabecular perimeter labeled with two calcein labels. • 3. Inter-labeled width (ILW, µm): average distance between two calcein labels. • 4. Percent mineralizing perimeter (PMS,%):(SLS/2 + DLS) / BS x 100. • 5. Mineral apposition rate (MAR, µm/day): ILW / label interval. • 6. Bone formation rate/surface ref. (BFR/BS, µm^2/d/µm): (SLS/2 + DLS) x MAR / BS. • 7. […]

[7] = system: adult ORX rats; test: Male osteoporosis model: femoral bone mineral measurements (DEXA); format: in vivo, Sprague-Dawley male rats; conditions: 10 or 100 µg/kg/day p.o. for 60 days; compared to ORX controls
Procedure: as §1

[8] = system: Male Sprague-Dawley rats; test: Effect on prostate weight; format: in vivo
Procedure: Male Sprague-Dawley rats, three months of age are administered by subcutaneous injection either vehicle (10% ethanol in water), estradiol (30 µg/kg), testosterone (1 mg/kg) or a compound of formula I daily for 14 days (n=6/group). After 14 days the animals are sacrificed, the prostate is removed, and the wet prostate weight is determined. Mean weight is determined and statistical significance (p<0.05) is determined compared to the vehicle-treated group using Student's t-test.

[9] = system: male rats; conditions: treatment of male rats; cited from earlier work
[10] = system: male rats; conditions: 200 and 400 mg/kg/day; cited from earlier work
[11] = 10 or 100 µg/kg/day p.o. for 60 days, compared to ORX controls

SMILES: Oc1ccc2c(c1)CC[C@H](c1ccccc1)[C@@H]2c1ccc(OCCN2CCCC2)cc1 [(-)Cis-6-phenyl-5-[4-(2-pyrrolidin-1-yl-ethoxy)phenyl]-5,6,7,8-tetrahydronaphthalen-2-ol]
- ED50 [1]: ~1 µg/kg
- prostate histology parameters [2]: no effect
- prostate weight [2]: no effect
- age-related and ORX-induced decreases in maximal load [3, 11]: completely prevented
- Maximal Load of LV5 ([3]; 10 µg dose group): 393 ± 27 N
- Maximal Load of LV5 ([3]; 100 µg dose group): 393 ± 25 N
- decrease of total serum cholesterol ([4]; 10 µg/kg/d p.o. for 60 days): 46%
- decrease of total serum cholesterol ([4]; 100 µg/kg/d p.o. for 60 days): 68%
- total serum cholesterol ([4]; 1, 10, 100 µg/kg/day p.o. for 60 days, compared to both sham and ORX controls): dose-dependently decreased
- body weight [5]: dose-dependently decreased
- age-related and ORX-induced decreases in TBV [6, 11]: completely prevented
- bone resorption [6, 11]: significantly decreased
- bone turnover [6, 11]: significantly decreased
- Activation Frequency ([6]; 10 µg dose group): 2.06 ± 0.28 #/year
- Activation Frequency ([6]; 100 µg dose group, p < 0.05 vs. ORX): 0.93 ± 0.08 # #/year
- Activation Frequency ([6]; dose group printed as 1 mg, p < 0.05 vs. Sham): 2.67 ±0.34 #/year
- age-related and ORX-induced decreases in DFBMD [7]: completely prevented

SMILES: C[C@]12CC[C@H]3[C@@H](CCC4=CC(=O)CC[C@@]43C)[C@@H]1CC[C@@H]2O [Testosterone, testosterone]
- prostate weight compared to vehicle ([8]; testosterone 1 mg/kg s.c. daily for 14 days): no effect

SMILES: C[C@]12CC[C@@H]3c4ccc(O)cc4CC[C@H]3[C@@H]1CC[C@@H]2O [estrogen, estradiol]
- prostate weight compared to vehicle ([8]; 30 µg/kg s.c. daily for 14 days): significantly reduces prostate weight

SMILES: O=C(c1ccc(OCCN2CCCCC2)cc1)c1c(-c2ccc(O)cc2)sc2cc(O)ccc12 [raloxifene, 6-hydroxy-2-(4-hydroxyphenyl)-3-[4-(2-piperidinoethoxy)benzoyl] benzo[b] thiophene]
- ventral prostate [9]: regression of the ventral prostate

SMILES: CC/C(=C(\c1ccccc1)c1ccc(OCCN(C)C)cc1)c1ccccc1 [tamoxifen, 1-(4-β-dimethylaminoethoxyphenyl)-1,2-diphenyl-but-1-ene]
- weights of the testes and secondary sex organs [10]: reduces the weights of the testes and secondary sex organs

Reference: patent EP1004306A2, “Estrogen agonists/antagonists” (Pfizer Products Inc., priority 1998, dated 2000)
